According to patent US20250268854A1, “2-AMINO-5,5-DIMETHYLHEXANOIC ACID DERIVATIVES AS SORTILIN MODULATORS FOR USE IN THE TREATMENT OF DISEASE OF THE CENTRAL NERVOUS SYSTEM” (c/o Vesper Bio ApS, priority 2021, published 2025):
Where a name gives a salt, the structure may show the parent alone.

Columns and labels:
h-Sortilin = h-Sortilin (Homo sapiens (Human), UniProt Q99523); test: Neurotensin (NTS) scintillation proximity assay (SPA): displacement of [3H]-neurotensin binding; conditions: 150 nM 6his-Sortilin, 5 nM [3H]-Neurotensin, average of at least 2 determinations
Chain of h-Sortilin (Q99523 78-831): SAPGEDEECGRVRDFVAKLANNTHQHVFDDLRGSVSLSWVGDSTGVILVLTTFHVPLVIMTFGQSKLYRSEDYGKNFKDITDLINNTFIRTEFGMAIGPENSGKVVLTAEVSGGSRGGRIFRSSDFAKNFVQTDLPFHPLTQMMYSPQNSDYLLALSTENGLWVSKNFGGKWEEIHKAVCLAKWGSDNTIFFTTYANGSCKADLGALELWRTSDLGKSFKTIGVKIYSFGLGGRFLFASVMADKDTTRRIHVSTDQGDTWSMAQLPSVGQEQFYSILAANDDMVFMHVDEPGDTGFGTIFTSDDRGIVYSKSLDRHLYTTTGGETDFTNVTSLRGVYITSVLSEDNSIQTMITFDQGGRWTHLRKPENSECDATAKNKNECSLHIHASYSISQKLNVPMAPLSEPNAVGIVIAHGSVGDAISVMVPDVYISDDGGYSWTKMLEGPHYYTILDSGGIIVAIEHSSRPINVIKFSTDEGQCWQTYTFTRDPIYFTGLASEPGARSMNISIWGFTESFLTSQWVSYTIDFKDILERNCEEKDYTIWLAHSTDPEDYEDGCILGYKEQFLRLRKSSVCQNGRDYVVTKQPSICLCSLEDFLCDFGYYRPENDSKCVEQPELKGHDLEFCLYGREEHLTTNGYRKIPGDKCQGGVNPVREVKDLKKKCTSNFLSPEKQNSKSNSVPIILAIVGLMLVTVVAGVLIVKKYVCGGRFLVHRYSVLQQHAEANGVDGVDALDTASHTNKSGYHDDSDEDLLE
Experimental: The exemplified compounds of the invention were tested in a Neurotensin (NTS) scintillation proximity assay (SPA). NTS, which is a 13 amino acid neuropeptide, is a sortilin ligand. The IC50 is a measure of the amount of the compound required to inhibit the binding of NTS to sortilin by 50%. […] Compound affinity was determined by measuring the displacement of [^3H]-neurotensin binding to h-Sortilin in SPA format. […] IC50 values were calculated by nonlinear regression using the sigmoid concentration-response (variable slope) using CDD Vault software. All values reported are average of at least 2 determinations.

human Sortilin = human Sortilin (Homo sapiens (Human), UniProt Q99523); test: Creoptix (GCI) binding kinetics, human Sortilin; conditions: screened at 1 μM
Chain of human Sortilin (Q99523 78-755): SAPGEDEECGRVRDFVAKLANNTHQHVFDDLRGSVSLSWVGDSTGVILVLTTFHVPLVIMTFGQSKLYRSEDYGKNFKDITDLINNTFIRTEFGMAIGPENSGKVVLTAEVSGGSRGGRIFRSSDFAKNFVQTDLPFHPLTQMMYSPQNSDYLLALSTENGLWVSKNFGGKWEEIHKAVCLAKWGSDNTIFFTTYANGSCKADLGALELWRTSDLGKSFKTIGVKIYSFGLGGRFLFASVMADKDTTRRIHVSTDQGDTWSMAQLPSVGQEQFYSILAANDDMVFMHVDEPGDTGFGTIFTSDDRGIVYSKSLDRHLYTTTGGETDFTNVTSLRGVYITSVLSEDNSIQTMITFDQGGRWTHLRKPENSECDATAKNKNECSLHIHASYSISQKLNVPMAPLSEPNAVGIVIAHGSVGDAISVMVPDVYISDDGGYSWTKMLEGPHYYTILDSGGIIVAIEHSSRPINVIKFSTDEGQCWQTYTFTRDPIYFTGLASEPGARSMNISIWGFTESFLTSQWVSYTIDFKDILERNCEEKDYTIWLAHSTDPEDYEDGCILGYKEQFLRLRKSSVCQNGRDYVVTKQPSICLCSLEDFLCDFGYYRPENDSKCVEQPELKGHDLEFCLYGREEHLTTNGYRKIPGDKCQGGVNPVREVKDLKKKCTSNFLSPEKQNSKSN
Experimental: A protein, bound to a surface, is bathed in a solution containing potential ligands giving rise to binding kinetics to generate Kon and Koff rates, as well as a Kd.
All buffers described were filtered using a 0.2 μm filter (Product number: 10300461, Nalgene) and degassed for 15 minutes prior to use.
A flow cell temperature of 25 degrees Celsius was used throughout the experiment.
A 4PCH chip was conditioned across all flow cells using 0.2× concentration running buffer (running buffer composition: 1×HBS-N, pH 7.4, 3.4 mM EDTA, 1% DMSO) using pre-set conditioning wizard (WAVE control software) injecting: 0.1 M borate, 1 M NaCl (pH 9) followed by three start-up injections of 0.2× running buffer.
A buffer exchange was performed and 1× running buffer (1×HBS-N, pH 7.4, 3.4 mM EDTA, 1% DMSO) used during the immobilisation procedure:
An initial injection of EDC/NHS (mixed in 1:1 ratio) was performed across all 4-flow cells to activate the surface for amine coupling of ligands.
Recombinant Sortilin aliquots were thawed quickly by hand and centrifuged at 13,300 rpm for 10 minutes. A 10 μg/ml protein solution was then made in pH 5.0 acetate and injected once for 20 minutes over flow-cells 2, 3 and 4 for human, human (flow cells 2 & 3), and mouse Sortilin respectively followed by a 60 second dissociation period.
A final 7-minute passivation injection of 50 mM tris was used across all flow cells.
A flow rate of 10 μl/min was used for all conditioning and immobilisation cycles.
Compounds were screened at 1 μM using the in-built ‘intermediate binders’ settings: 100 ul/min, 45 s baseline, 25 s association, 300 s dissociation, with blanks every 5th sample and a DMSO correction (1.5% DMSO at the start and end of the experiment as well as every 20 cycles. An acquisition rate of 10 Hz was used throughout the experiment.
Compounds were screened at a final assay concentration of 1 μM and a final DMSO concentration was 1%. To achieve this, compounds were diluted in DMSO from 10 mM stocks to 100 μM (100×final assay concentration) then diluted 1:100 in running buffer which contained no DMSO to establish a final assay concentration of compound of 1 μM and a final DMSO concentration of 1% [DMSO].
Compounds and DMSO were mixed by plate shaking at 1000 rpm for 60 seconds using a Bioshake instrument.
A flow rate of 100 μl/min was used throughout the experiment.
Data was evaluated using the RAPID kinetic analysis tool in the GCI WAVE_control software with data fitted using a standard 1:1 kinetic BioModel.

| Compound | IC50 (h-Sortilin) [nM] | Kd (human Sortilin; Free acid) [nM] | other results |
| --- | --- | --- | --- |
| COc1ccc([C@H](C)N[C@@H](CCC(C)(C)C)C(=O)O)cc1C [Example 101] | 280 | 277 | – |
| COc1ccc([C@@H](C)N[C@@H](CCC(C)(C)C)C(=O)O)cc1C [Example 102] | 540 | 407 | – |
| COc1ccc([C@@H](C)N[C@@H](CCC(C)(C)C)C(=O)O)cc1OC [Example 107, (2S)-2-{[(1R)-1-(3,4-dimethoxyphenyl)ethyl]amino}-5,5-dimethylhexanoic acid] | 930 | 443 | – |
| COc1ccc([C@H](N[C@@H](CCC(C)(C)C)C(=O)O)C(F)(F)F)cc1OC [Example 114, (2S)-2-{[(1S)-1-(3,4-dimethoxyphenyl)-2,2,2-trifluoroethyl]amino}-5,5-dimethylhexanoic acid] | 220 | 132 | – |
| CC(C)(C)CC[C@H](NCc1cccc2c1OCO2)C(=O)O [Example 45, (2S)-2-{[(2H-1,3-benzodioxol-4-yl)methyl]amino}-5,5-dimethylhexanoic acid] | 1060 | 285 | – |
| CC(C)(C)CC[C@H](NCc1ccccc1)C(=O)O [Example 3, (S)-2-(benzylamino)-5,5-dimethylhexanoic acid hydrochloride] | 766 | – | Kd (human Sortilin; HCl salt): 902 nM |
| COc1ccc([C@H](N[C@@H](CCC(C)(C)C)C(=O)O)C(F)F)cc1OC [Example 112, (2S)-2-{[(1S)-1-(3,4-dimethoxyphenyl)-2,2-difluoroethyl]amino}-5,5-dimethylhexanoic acid] | 280 | 183 | – |
| CC(C)(C)CC[C@H](NC1=Nc2ccccc2Oc2ccccc21)C(=O)O [Example 20, (2S)-5,5-dimethyl-2-({2-oxa-9-azatricyclo[9.4.0.0^3,8]pentadeca-1(11),3(8),4,6,9,12,14-heptaen-10-yl}amino)hexanoic acid] | 1490 | – | – |
| CC(C)(C)CC[C@H](NCc1cccc2cnccc12)C(=O)O [Example 81] | 790 | – | – |
| CC(C)(C)CC[C@H](NCc1cccc2c1CCCC2)C(=O)O [Example 39, (2S)-5,5-dimethyl-2-{[(5,6,7,8-tetrahydronaphthalen-1-yl)methyl]amino}hexanoic acid] | 360 | – | – |
| CC(C)(C)CC[C@H](N[C@@H](c1ccccc1)C(F)(F)F)C(=O)O [Example 16, (S)-5,5-dimethyl-2-(((S)-2,2,2-trifluoro-1-phenylethyl)amino)hexanoic acid] | 1480 | – | – |
| COc1cccc([C@H](N[C@@H](CCC(C)(C)C)C(=O)O)C(F)(F)F)c1 [Example 24, (2S)-5,5-dimethyl-2-{[(1S)-2,2,2-trifluoro-1-(3-methoxyphenyl)ethyl]amino}hexanoic acid] | – | 230 | – |
| CC(N[C@@H](CCC(C)(C)C)C(=O)O)c1cncnc1 (stereo partly drawn) [Example 141, (2S)-5,5-dimethyl-2-((1-(pyrimidin-5-yl)ethyl)amino)hexanoic acid, HCl] | – | – | IC50 (h-Sortilin; HCl): 640 nM |
| C[C@H](N[C@@H](CCC(C)(C)C)C(=O)O)c1ccccc1 [Example 15, (S)-5,5-dimethyl-2-(((S)-1-phenylethyl)amino)hexanoic acid hydrochloride] | 3480 | – | – |

The next lines start with results.

| IC50 (h-Sortilin) [nM] | Kd (human Sortilin; Free acid) [nM] | Compound | other results |
| --- | --- | --- | --- |
| 740 | 208 | Cc1ccc(CN[C@@H](CCC(C)(C)C)C(=O)O)cc1C [Example 137, (S)-2-((3,4-dimethylbenzyl)amino)-5,5-dimethylhexanoic acid, Mesylic acid] | – |
| 470 | 101 | CC(C)(C)CC[C@H](NCc1ccc2c(c1)CCCO2)C(=O)O [Example 40, (2S)-2-{[(3,4-dihydro-2H-1-benzopyran-6-yl)methyl]amino}-5,5-dimethylhexanoic acid] | – |
| 630 | – | COc1ccccc1CN[C@@H](CCC(C)(C)C)C(=O)O [Example 9, (S)-2-((2-methoxybenzyl)amino)-5,5-dimethylhexanoic acid hydrochloride] | Kd (human Sortilin; HCl salt): 8450 nM |
| 330 | 5960 | CC(C)(C)CC[C@H](NCc1ccc2c(c1)OCCO2)C(=O)O [Example 41, (2S)-2-{[(2,3-dihydro-1,4-benzodioxin-6-yl)methyl]amino}-5,5-dimethylhexanoic acid] | – |
| 400 | 242 | COc1cc(CN[C@@H](CCC(C)(C)C)C(=O)O)ccc1C [Example 33, (2S)-2-{[(3-methoxy-4-methylphenyl)methyl]amino}-5,5-dimethylhexanoic acid] | – |
| 1390 | 2760 | COc1cc(C)cc(CN[C@@H](CCC(C)(C)C)C(=O)O)c1 [Example 69, (2S)-2-{[(3-methoxy-5-methylphenyl)methyl]amino}-5,5-dimethylhexanoic acid] | – |
| 550 | – | CC(C)(C)CC[C@H](NCc1ccc(Cl)c(Cl)c1)C(=O)O [Example 125, (2S)-2-{[(3,4-dichlorophenyl)methyl]amino}-5,5-dimethylhexanoic acid] | Kd (human Sortilin; Ms salt): 522 nM |
| 430 | 310 | COc1cncc(CN[C@@H](CCC(C)(C)C)C(=O)O)c1 [Example 144, (2S)-2-{[(5-methoxypyridin-3-yl)methyl]amino}-5,5-dimethylhexanoic acid] | – |
| 580 | 450 | COc1cc(Cl)cc(CN[C@@H](CCC(C)(C)C)C(=O)O)c1 [Example 30, (2S)-2-{[(3-chloro-5-methoxyphenyl)methyl]amino}-5,5-dimethylhexanoic acid] | – |
| 260 | 5960 | COc1cccc([C@@H](N[C@@H](CCC(C)(C)C)C(=O)O)C(F)F)c1 [Example 22, (2S)-2-{[(1R)-2,2-difluoro-1-(3-methoxyphenyl)ethyl]amino}-5,5-dimethylhexanoic acid] | – |
| 740 | – | Cn1cnc2c(CN[C@@H](CCC(C)(C)C)C(=O)O)cccc21 [Example 138, (S)-5,5-dimethyl-2-(((1-methyl-1H-benzo[d]imidazol-4-yl)methyl)amino)hexanoic acid, Mesylic acid] | – |
| 700 | – | Cc1cccc(CN[C@@H](CCC(C)(C)C)C(=O)O)c1C [Example 83, (2S)-2-{[(2,3-dimethylphenyl)methyl]amino}-5,5-dimethylhexanoic acid] | – |
| 790 | – | COc1cncc(CN[C@@H](CCC(C)(C)C)C(=O)O)c1 [Example 86] | – |
| 820 | – | COc1ccc(CN[C@@H](CCC(C)(C)C)C(=O)O)cc1 [Example 133, (2S)-2-{[(4-methoxyphenyl)methyl]amino}-5,5-dimethylhexanoic acid] | – |
| 1990 | – | COc1ccc2ccccc2c1CN[C@@H](CCC(C)(C)C)C(=O)O [Example 49, (2S)-2-{[(2-methoxynaphthalen-1-yl)methyl]amino}-5,5-dimethylhexanoic acid] | – |
| 380 | – | Cc1nc2cc(CN[C@@H](CCC(C)(C)C)C(=O)O)ccc2s1 [Example 100, (2S)-5,5-dimethyl-2-{[(2-methyl-1,3-benzothiazol-5-yl)methyl]amino}hexanoic acid] | – |
| 390 | – | COc1ccc(CN[C@@H](CCC(C)(C)C)C(=O)O)cc1O [Example 91, (2S)-2-{[(3-hydroxy-4-methoxyphenyl)methyl]amino}-5,5-dimethylhexanoic acid] | – |
| 1560 | – | Cn1nccc1CN[C@@H](CCC(C)(C)C)C(=O)O [Example 52, (2S)-5,5-dimethyl-2-{[(1-methyl-1H-pyrazol-5-yl)methyl]amino}hexanoic acid] | – |
| 1280 | – | CC(C)(C)CC[C@H](NCc1ccccc1CO)C(=O)O [Example 59, (S)-2-((2-(hydroxymethyl)benzyl)amino)-5,5-dimethylhexanoic acid hydrochloride] | – |
| 690 | – | Cc1cncc(CN[C@@H](CCC(C)(C)C)C(=O)O)c1 [Example 95] | – |
| 790 | – | CC(C)(C)CC[C@H](NCc1ccc(Cl)cc1)C(=O)O [Example 76, (2S)-2-{[(4-chlorophenyl)methyl]amino}-5,5-dimethylhexanoic acid] | – |
